This is an account of results in ChEMBL document CHEMBL5113509, “Synthesis and evaluation of 3'- and 4'-substituted cyclohexyl noviomimetics that modulate mitochondrial respiration” (Bioorg Med Chem, 2022).

For test [1], the system named is N2a. As to the kind of experiment: Cytoprotective activity against mouse N2a cells assessed as increase in mitochondrial ATP production at 100 to 1000 nM measured by Seahorse extracellular flux analyzer based assay. The class given is functional, cell-based. The note with it: dose 100-1000 nM.
The species named for test [2] is Homo sapiens. In words: Disruption of HSP90 alpha (unknown origin) and PPID (unknown origin) at 50 uM measured after 1 hr by AlphaLISA assay relative to control.
Test [3] has as its system N2a. As to the kind of experiment: Cytoprotective activity against mouse N2a cells assessed as decrease in mitochondrial ATP production at 100 to 1000 nM measured by Seahorse extracellular flux analyzer based assay. Type of test: functional, cell-based. As to conditions: dose 100-1000 nM.

Activity calls are given as the source filed them. The rule behind the calls is not given here.

In the case of `CC(=O)NCCc1ccc(O[C@H]2CC[C@H](S(=O)(=O)c3ccccc3)CC2)cc1-c1cccc(F)c1`, the outcome in test [1] was Active. For the same compound, the Activity in test [2] was over 50%. Taken in the same sequence, the figures for `CC(=O)NCCc1ccc(O[C@H]2CC[C@H](SCc3ccccc3)CC2)cc1-c1cccc(F)c1` were “Active” and under 50%. Taken in the same sequence, the figures for `CC(=O)NCCc1ccc(O[C@H]2CCC[C@@H](Sc3ccccc3)C2)cc1-c1cccc(F)c1` were “Active” and over 50%. As to `CC(=O)NCCc1ccc(O[C@H]2CC[C@H](Cc3ccccc3)CC2)cc1-c1cccc(F)c1`, in test [1], the outcome was Active. The compound also came in with an Activity in test [2] of over 50%. Taken in the same sequence, the figures for `CC(=O)NCCc1ccc(O[C@H]2CCC[C@@H](Cc3ccccc3)C2)cc1-c1cccc(F)c1` were “Active” and over 50%. The matching figures for `CC(=O)NCCc1ccc(O[C@H]2CC[C@@H](S(=O)(=O)Cc3ccccc3)CC2)cc1-c1cccc(F)c1`: “Active” and over 50%. The matching figures for `CC(=O)NCCc1ccc(O[C@H]2CC[C@@H](N(C)c3ccccc3)CC2)cc1-c1cccc(F)c1`: “Active” and under 50%. Regarding `CC(=O)NCCc1ccc(O[C@H]2CC[C@@H](Sc3ccccc3)CC2)cc1-c1cccc(F)c1`, in test [1], the result was Active. Also, the Activity in test [2] is over 50%. The matching figures for `CC(=O)NCCc1ccc(O[C@H]2CC[C@@H](Cc3ccccc3)CC2)cc1-c1cccc(F)c1`: “Active” and over 50%. Taken in the same sequence, the figures for `CC(=O)NCCc1ccc(O[C@@H]2CCC[C@@H](N(C)c3ccccc3)C2)cc1-c1cccc(F)c1` were “Active” and under 50%.

As to `CC(=O)NCCc1ccc(O[C@H]2CCC[C@@H](SCc3ccccc3)C2)cc1-c1cccc(F)c1`, in test [1], the result was Active.

Take `CC(=O)NCCc1ccc(O[C@H]2CC[C@H](Oc3cccc(Cl)c3)CC2)cc1-c1cccc(F)c1`: the outcome in test [3] was Active. Besides, the Activity in test [2] was over 50%.

For the compound `O[C@H]1CC[C@H](Oc2ccc(Cl)cc2Cl)CC1`, the result in test [1] was Active. Consider `CC(=O)NCCc1ccc(O[C@@H]2CCC[C@@H](Nc3ccccc3)C2)cc1-c1cccc(F)c1`, for which, in test [1], the result was Active. The Activity in test [2] is under 50%. Regarding `CC(=O)NCCc1ccc(O[C@H]2CCC[C@@H](Nc3ccccc3)C2)cc1-c1cccc(F)c1`, the result in test [1] was Active. Moreover, the Activity in test [2] was over 80%. Take `CC(=O)NCCc1ccc(O[C@H]2CC[C@@H](Oc3ccccc3)CC2)cc1-c1cccc(F)c1`: the result in test [1] was Active. The Activity in test [2] was over 50%.

In the case of `O[C@H]1CC[C@H](Oc2cccc(Cl)c2)CC1`, the outcome in test [1] was Active.

For `O[C@H]1CC[C@@H](Oc2cccc(Cl)c2)CC1`, the result in test [1] was Active. `CC(=O)NCCc1ccc(O[C@H]2CC[C@H](Oc3ccc(Cl)cc3Cl)CC2)cc1-c1cccc(F)c1`: the result in test [1] was Active. The compound also showed an Activity in test [2] of over 50%. `O[C@H]1CC[C@@H](Oc2ccc(Cl)cc2)CC1`: the outcome in test [1] was Active.

With `CC(=O)NCCc1ccc(O[C@H]2CC[C@H](CCc3ccccc3)CC2)cc1-c1cccc(F)c1`, the outcome in test [1] was Active. In test [2], this compound returned an Activity of over 50%. Taken in the same sequence, the figures for `CC(=O)NCCc1ccc(O[C@H]2CC[C@@H](C(F)(F)Cc3ccccc3)CC2)cc1-c1cccc(F)c1` were “Active” and over 50%. As for `CC(=O)NCCc1ccc(O[C@H]2CC[C@H](Oc3ccc(Cl)cc3)CC2)cc1-c1cccc(F)c1`, the result in test [3] was Active. For the same compound, the Activity in test [2] was over 50%. For the compound `CC(=O)NCCc1ccc(O[C@H]2CCC[C@@H](N(C)c3ccccc3)C2)cc1-c1cccc(F)c1`, the result in test [1] was Active. Further, the Activity in test [2] is under 50%. The matching figures for `CC(=O)NCCc1ccc(O[C@H]2CC[C@H](Oc3ccccc3)CC2)cc1-c1cccc(F)c1`: “Active” and over 50%. Taken in the same sequence, the figures for `CC(=O)NCCc1ccc(O[C@H]2CC[C@@H](Oc3ccc(Cl)cc3Cl)CC2)cc1-c1cccc(F)c1` were “Active” and over 50%. For `CC(=O)NCCc1ccc(O[C@H]2CCC[C@@H](Oc3ccccc3)C2)cc1-c1cccc(F)c1`, in test [1], the outcome was Active. The Activity in test [2] was over 50%. For the compound `CC(=O)NCCc1ccc(O[C@H]2CC[C@@H](Oc3cccc(Cl)c3)CC2)cc1-c1cccc(F)c1`, the result in test [3] was Active. Also, the Activity in test [2] was over 50%.

`CC(=O)NCCc1ccc(O[C@H]2CCC[C@@H](CCc3ccccc3)C2)cc1-c1cccc(F)c1`: the outcome in test [1] was Active. In addition, the Activity in test [2] was over 50%. Consider `CC(=O)NCCc1ccc(O[C@H]2CC[C@@H](S(=O)(=O)c3ccccc3)CC2)cc1-c1cccc(F)c1`, for which the result in test [1] was Active. Besides, the Activity in test [2] is over 50%. The matching figures for `CC(=O)NCCc1ccc(O[C@@H]2CCC[C@@H](Cc3ccccc3)C2)cc1-c1cccc(F)c1`: “Active” and over 50%.

Take `CC(=O)NCCc1ccc(O[C@H]2CC[C@@H](Nc3ccccc3)CC2)cc1-c1cccc(F)c1`: the outcome in test [1] was Active. Further, the Activity in test [2] was over 80%.

Turning to `CC(=O)NCCc1ccc(O[C@H]2CC[C@H](Nc3ccccc3)CC2)cc1-c1cccc(F)c1`, the outcome in test [1] was Active. Further, the Activity in test [2] is under 50%. For `CC(=O)NCCc1ccc(O[C@H]2CC[C@H](N(C)c3ccccc3)CC2)cc1-c1cccc(F)c1`, in test [1], the outcome was Active. The compound also returned an Activity in test [2] of under 50%.

Take `CC(=O)NCCc1ccc(O[C@H]2CC[C@H](C(F)(F)Cc3ccccc3)CC2)cc1-c1cccc(F)c1`: the result in test [1] was Active. For the same compound, the Activity in test [2] is over 50%. The matching figures for `CC(=O)NCCc1ccc(O[C@@H]2CCC[C@@H](OCc3ccccc3)C2)cc1-c1cccc(F)c1`: “Active” and under 50%. The matching figures for `CC(=O)NCCc1ccc(O[C@H]2CC[C@H](Oc3ccccc3Cl)CC2)cc1-c1cccc(F)c1`: “Active” and over 50%. On to `CC(=O)NCCc1ccc(O[C@@H]2CCC[C@@H](SCc3ccccc3)C2)cc1-c1cccc(F)c1`, for which the result in test [1] was Active. In test [2], the Activity was over 50%. With `CC(=O)NCCc1ccc(O[C@@H]2CCC[C@H](Sc3ccccc3)C2)cc1-c1cccc(F)c1`, in test [1], the outcome was Active. In test [2], this compound registered an Activity of over 50%. In the case of `CC(=O)NCCc1ccc(O[C@H]2CC[C@@H](Oc3ccc(Cl)cc3)CC2)cc1-c1cccc(F)c1`, the outcome in test [3] was Active. In test [2], this compound came in with an Activity of over 50%. For `CC(=O)NCCc1ccc(O[C@H]2CC[C@@H](SCc3ccccc3)CC2)cc1-c1cccc(F)c1`, the result in test [1] was Active. For the compound `O[C@H]1CC[C@@H](Oc2ccc(Cl)cc2Cl)CC1`, the result in test [1] was Active. Turning to `CC(=O)NCCc1ccc(O[C@H]2CC[C@@H](OCc3ccccc3)CC2)cc1-c1cccc(F)c1`, the outcome in test [1] was Active. Consider `CC(=O)NCCc1ccc(O[C@H]2CC[C@H](S(=O)(=O)Cc3ccccc3)CC2)cc1-c1cccc(F)c1`, for which the result in test [1] was Active. For the same compound, the Activity in test [2] was over 50%. Taken in the same sequence, the figures for `CC(=O)NCCc1ccc(O[C@H]2CC[C@@H](Oc3ccccc3Cl)CC2)cc1-c1cccc(F)c1` were “Active” and over 50%. `O[C@H]1CC[C@H](Oc2ccc(Cl)cc2)CC1`: the outcome in test [1] was Active. `CC(=O)NCCc1ccc(O[C@H]2CC[C@H](Sc3ccccc3)CC2)cc1-c1cccc(F)c1`: the outcome in test [1] was Active. Moreover, in test [2], the Activity is over 50%. Take `CC(=O)NCCc1ccc(OC2CCC(Oc3ccccc3)[C@H](O)[C@@H]2O)cc1-c1cccc(F)c1` (stereo partly drawn): the result in test [1] was Active. Regarding `CC(=O)NCCc1ccc(O[C@@H]2CCC[C@@H](CCc3ccccc3)C2)cc1-c1cccc(F)c1`, the outcome in test [1] was Active. Further, in test [2], the Activity is over 50%. Take `CO[C@@H]1[C@@H](OC(N)=O)[C@@H](O)[C@H](Oc2ccc3c(O)c(NC(=O)c4ccc(O)c(CC=C(C)C)c4)c(=O)oc3c2C)OC1(C)C`: in test [1], the outcome was Active. In the case of `CC(=O)NCCc1ccc(O[C@H]2CCC[C@@H](OCc3ccccc3)C2)cc1-c1cccc(F)c1`, the outcome in test [1] was Active. The compound also yielded an Activity in test [2] of over 50%.

As for `CC(=O)NCCc1ccc(O[C@@H]2CCC[C@@H](Oc3ccccc3)C2)cc1-c1cccc(F)c1`, the result in test [1] was Active. The Activity in test [2] is over 50%.
